Results: paper PMC12713470, “Design and Synthesis of Novel Chalcone Derivatives Targeting Bladder and Liver Cancer: Cytotoxicity Evaluation and Preliminary Mechanistic Studies” (ACS Omega, 2025)
Where two headings read alike, the source gives them in different places.

How the values were obtained:
[1] = test system: HeLa: human cervical adenocarcinoma cells; test: MTT cytotoxicity assay on HeLa cells; format: cell-based; conditions: for IC50: Homo sapiens, HeLa, MTT, 72 h incubation, n = 3, NA: noncytotoxic at the concentrations tested; for SI (HeLa): IC50 MRC-5/IC50 HeLa
Method: (§1) Cytotoxicity was determined using the MTT colorimetric assay, and half-maximal inhibitory concentrations (IC50, μM) were obtained for all cell lines (Table ). The selectivity index (SI) was calculated as the ratio of IC50 MRC-5/IC50 cancer cell line. Doxorubicin was employed as a positive control due to its broad-spectrum clinical use, either alone or in combination, against hepatocellular, ovarian, cervical, and bladder cancers. −
(§2) In vitro biological assays were performed by using five human cell lines for cytotoxicity evaluation. HepG2 cells (ATCC HB-8065), derived from a human hepatocellular carcinoma of the liver (person), were cultured in Dulbecco’s modified Eagle medium (DMEM) supplemented with 5% fetal bovine serum (FBS), penicillin/streptomycin (100 IU/mL), and amphotericin B (5 μg/mL), in a humidified incubator with 5% CO2 at 37 °C. These cells were plated at a concentration of 2.0 × 10^4 cells/well in 96-well microplates. MRC-5 cells (ATCC CCL-171), derived from human lung fibroblasts of a […] fetus, were cultured under the same conditions and plated at 1.0 × 10^4 cells/well. T24 cells (ATCC HTB-4), established from a transitional cell carcinoma of the bladder (person), were also cultured under identical conditions and plated at a density of 1.0 × 10^4 cells/well. TOV-21G cells (ATCC CRL-11730), derived from a primary malignant ovarian adenocarcinoma (person), were maintained in DMEM with the same supplementation and environmental conditions and plated at 5.0 × 10^4 cells/well. […]
(§3) HeLa, HepG2, MRC-5, T24, and TOV-21G cells were suspended in a culture medium supplemented with 5% fetal bovine serum (FBS) and seeded into 96-well microplates. The plates were incubated under a humidified atmosphere containing 5% CO2 at 37 °C for 24 h, allowing for adherence and monolayer formation. , Eight serial dilutions of the test samples, previously solubilized in dimethyl sulfoxide (DMSO), were prepared in DMEM supplemented with 1% FBS, covering a concentration range from […], and the results were converted to […]. The volume of DMSO in each well was limited to a final concentration not exceeding 2%. Following monolayer formation, the culture medium was aspirated and replaced with 100 μL of the diluted test samples and 100 μL of DMEM containing 1% FBS. The plates were then incubated under the same atmospheric and temperature conditions.
(§4) Two hours prior to end point reading, 20 μL of MTT [3-(4,5-dimethylthiazol-2-yl)-2,5-diphenyltetrazolium bromide] solution (1.0 mg/mL in sterile phosphate-buffered saline, Sigma-Aldrich) was added to each well. The incubation period following sample addition varied according to the cell line: 24 h for MRC-5, 48 h for T24, and 72 h for HeLa, HepG2, and TOV-21G. After the appropriate incubation, absorbance was measured by using a VICTOR X3 microplate reader (PerkinElmer), and data were processed with WorkOut 2.5 software at a wavelength of 490 nm. Formazan formation, resulting from the MTT reduction by metabolically active cells, was used as an indirect measure of cell viability. The percentage of cytotoxicity was calculated using the equation % cytotoxicity = [(A – B)/A] × 100, where A is the optical density (OD4 9 0) of untreated control cells and B is the OD4 9 0 of treated cells.
(§5) Cytotoxicity was expressed as the 50% cytotoxic concentration (CC5 0), representing the concentration of sample required to reduce cell viability by 50% relative to that of the untreated control.

[2] = test system: T24: human urinary bladder carcinoma cells; test: MTT cytotoxicity assay on T24 cells; format: cell-based; conditions: for IC50: Homo sapiens, T-24, MTT, 48 h incubation, n = 3, NA: noncytotoxic at the concentrations tested; for SI (T24): IC50 MRC-5/IC50 T24
Method: as §1, §2, §3, §4, §5

[3] = test system: HepG2: human liver hepatocellular carcinoma cells; test: MTT cytotoxicity assay on HepG2 cells; format: cell-based; conditions: for IC50: Homo sapiens, HepG2, MTT, 72 h incubation, n = 3, NA: noncytotoxic at the concentrations tested; for SI (HepG2): IC50 MRC-5/IC50 HepG2
Method: as §1, §2, §3, §4, §5

[4] = test system: TOV-21G: human ovarian adenocarcinoma cells; test: MTT cytotoxicity assay on TOV-21G cells; format: cell-based; conditions: for IC50: Homo sapiens, TOV21G, MTT, 72 h incubation, n = 3, NA: noncytotoxic at the concentrations tested; for SI (TOV-21G): IC50 MRC-5/IC50 TOV-21G
Method: as §1, §2, §3, §4, §5

[5] = test system: MRC-5: human lung fibroblast cells; test: MTT cytotoxicity assay on MRC-5 cells; format: cell-based; conditions: MRC5, 24 h incubation, n = 3, ± standard deviation
Method: as §1, §2, §3, §4, §5

[6] = test system: human hepatocellular carcinoma (HCC) cells; set-up: method as in Tsai and colleagues; conditions: subtoxic concentrations (5–20 μM); ref Tsai and colleagues; cited from earlier work
[7] = test system: HepG2: human liver hepatocellular carcinoma cells; set-up: method as in PMID 37944413; conditions: hit compound, earlier study of the group; read-out: IC50 HepG2 (earlier work); cited from earlier work
HepG2 cells = test system: HepG2 cells; set-up: method as in PMID 37944413; conditions: hit compound, earlier study of the group; cited from earlier work

Compound	IC50 [1]	SI (HeLa) [1]	IC50 [2]	SI (T24) [2]	IC50 [3]	IC50 [4]	SI (TOV-21G) [4]	IC50 [5]	SI (HepG2) [3]	activity against TOV-21G relative to hit 1 ([4]; ratio of IC50 values, 1 vs 2)	migration and invasion of human hepatocellular carcinoma (HCC) cells [6]	IC50 [7]	HepG2 cell migration (earlier work) (HepG2 cells)
COc1cccc2c1C(=O)c1c(O)c3c(c(O)c1C2=O)C[C@@](O)(C(=O)CO)C[C@@H]3O[C@H]1C[C@H](N)[C@H](O)[C@H](C)O1 [doxorubicin, reference compound]	2.9 ± 1.1 µM	0.2	4.4 ± 1.3 µM	0.1	0.06 µM	0.5 µM	1.3	0.6 ± 1.2 µM	–	–	–	–	–
CCCc1cc(/C=C/C(=O)c2ccc(C)cc2)c(OC(C)=O)c(OC)c1 [compound 2, (E)-2-Methoxy-6-(3-oxo-3-(p-toluyl)-prop-1-en-1-yl)-4-propylphenyl Acetate]	3.6 ± 1.3 µM	4.7	59.5 ± 1.5 µM	0.2	4.2 ± 1.2 µM	1.2 ± 1.1 µM	13.3	16.1 ± 1.5 µM	3.8	over six times more active	–	–	–
CCCc1cc(/C=C/C(=O)c2ccc(C)cc2)c(OCc2ccccc2)c(OC)c1 [compound 4, (E)-3-(2-(Benzyloxy)-3-methoxy-5-propylphenyl)-1-(p-toluyl)-prop-2-en-1-one]	–	–	–	–	16.9 ± 1.3 µM	–	–	242.4 ± 2.4 µM	14.3	–	–	–	–
COc1cc(N)cc(/C=C/C(=O)c2ccc(C)cc2)c1O [compound 8, (E)-3-(5-Amino-2-hydroxy-3-methoxyphenyl)-1-(p-tolyl)-prop-2-en-1-one]	11.5 ± 1.8 µM	3.5	158.6 ± 1.4 µM	0.2	–	53.1 ± 2.6 µM	0.7	40.9 ± 2 µM	–	–	–	–	–
CCCc1cc(OC)c(O)c(C(=O)/C=C/c2ccccc2)c1 [compound 15, (E)-1-(2-Hydroxy-3-methoxy-5-propylphenyl)-3-phenylprop-2-en-1-one]	13.7 ± 1.5 µM	1.3	18.4 ± 1.9 µM	1	16.1 ± 1.2 µM	5.4 ± 1.2 µM	3.3	18.4 ± 1.9 µM	1.1	–	–	–	–
CCCc1cc(OC)c(O)c(C(=O)/C=C/c2ccc(C)cc2)c1 [compound 16, (E)-1-(2-Hydroxy-3-methoxy-5-propylphenyl)-3-(p-tolyl)-prop-2-en-1-one]	12.8 ± 1.3 µM	0.6	17.1 ± 2.1 µM	0.4	6.6 ± 1.4 µM	10.9 ± 1.5 µM	0.7	7.7 ± 1.5 µM	1.1	–	–	–	–
CCCc1cc(OC)c(O)c(C(=O)/C=C/c2ccc(F)cc2)c1 [compound 18, (E)-3-(4-Fluorophenyl)-1-(2-hydroxy-3-methoxy-5-propylphenyl)-prop-2-en-1-one]	4.1 ± 1.3 µM	2.8	15.4 ± 1.5 µM	0.7	8.3 ± 1.2 µM	4.8 ± 1.4 µM	2.3	11.5 ± 1.2 µM	1.3	–	–	–	–
CCCc1cc(/C=C/C(=O)c2ccc(C(=O)/C=C/c3cc(CCC)cc(OC)c3O)cc2)c(O)c(OC)c1 [compound 12, (2E,2′E)-1,1′-(1,4-Phenylene)-bis(3-(2-hydroxy-3-methoxy-5-propylphenyl)-prop-2-en-1-one)]	20.4 ± 1.5 µM	1.7	10.4 ± 1.7 µM	3.3	–	33.7 ± 2.4 µM	1.0	35 ± 1.5 µM	–	–	–	–	–
CCCc1cc(/C=C/C(=O)c2ccc(O)cc2)c(O)c(OC)c1 [compound 10, (E)-3-(2-Hydroxy-3-methoxy-5-propylphenyl)-1-(4-hydroxyphenyl)-prop-2-en-1-one]	17.9 ± 2 µM	0.2	34.9 ± 1.4 µM	0.1	18.9 ± 1.6 µM	7.2 ± 1.2 µM	0.7	5 ± 1.3 µM	0.2	–	–	–	–
CCCc1cc(/C=C/C(=O)c2ccccc2)c(O)c(OC)c1 [compound 11, (E)-3-(2-Hydroxy-3-methoxy-5-propylphenyl)-1-phenylprop-2-en-1-one]	2.1 ± 1.1 µM	5.2	9.2 ± 1.2 µM	1.2	4.6 ± 1.2 µM	11.9 ± 1.5 µM	0.9	11 ± 1.2 µM	2.3	–	–	–	–
CCCc1cc(OC)c(O)c(C(=O)/C=C/c2ccc(O)cc2)c1 [compound 17, (E)-1-(2-Hydroxy-3-methoxy-5-propylphenyl)-3-(4-hydroxyphenyl)-prop-2-en-1-one]	114 ± 2.1 µM	0.1	36.4 ± 1.5 µM	0.3	19.4 ± 1.4 µM	39 ± 1.5 µM	0.3	12.7 ± 1.4 µM	0.6	–	–	–	–
C=CC(C)(C)c1cc(/C=C/C(=O)c2ccc(O)cc2)c(OC)cc1O [licochalcone A]	–	–	–	–	–	–	–	–	–	–	effectively inhibited migration and invasion	–	–
COc1cc([N+](=O)[O-])cc(/C=C/C(=O)c2ccc(C)cc2)c1O [compound 7, (E)-3-(2-Hydroxy-3-methoxy-5-nitrophenyl)-1-(p-tolyl)-prop-2-en-1-one]	26.6 ± 1.8 µM	1.0	104 ± 1.9 µM	0.2	16.6 ± 1.5 µM	23.8 ± 2.8 µM	1.1	28.1 ± 1.3 µM	1.6	–	–	–	–
CCCc1cc(/C=C/C(=O)c2ccc(C)cc2)c(O)c(OC)c1 [compound 1]	–	–	> 161 µM	<0.2	4.2 ± 1.3 µM	7.2 ± 1.3 µM	6.5	47.2 ± 1.3 µM	11.1	–	–	4.25 µM	inhibiting HepG2 cell migration
